For one series, the target named is GLS (Homo sapiens (Human), UniProt O94925). The series can be described thus: Inhibition of GLS (established radioactive assay). The class given is biochemical. From the text: All new synthetic compounds can be tested for their ability to inhibit GLS using an already established radioactive assay.
A short description of another series: Metabolic stability. In kind it is in vitro ADME. The conditions noted are these: oxidation of the sulfide moiety. From the text: In compound 4, the terminal aminothiadiazole ring was replaced with a secondary amide, presenting a new scaffold for GLS inhibitors.
The next series has as its system Panc265 tumor. Kind of series: Panc265 patient-derived orthotopic pancreatic cancer xenograft tumor growth. The conditions noted are these: BPTES nanoparticles 1.2 mg every 3 days IV; gemcitabine 625 μg twice per week IP; 4 weeks. The class given is in vivo. (In xenograft studies the graft and the host belong to different species.)
The test system of series [1] is resected pancreatic cancer. The conditions noted are these: six cycles adjuvant, cited from earlier work.
Series [2] relates to resected pancreatic cancer. Particulars: 6 months adjuvant treatment after complete macroscopic resection; cited from earlier work.
Series [3] concerns KRAS-mutant human pancreatic cancer cells. Kind of series: Growth of glutamine-addicted pancreatic cancer cells with BPTES. In kind it is cell-based. Particulars: full DMEM media, BPTES dissolved in DMSO.
Procedure: Cells were grown at 37° C. in a 5% (v/v) CO2 and 95% (v/v) air incubator in full DMEM media.
Series [4] is described as follows: BPTES levels in pancreatic tumors after intravenous administration (LC-MS/MS). The class given is in vivo, mice. Particulars: all time points, limit of detection 10 nM. From the text: BPTES levels were quantified by LC-MS/MS.
(§1) DMSO solution per dose, as this was is the highest dose that could be administered based on solubility and injection volume limitations.

The test system of series [5] is glutamine-dependent JHU094 pancreatic patient tumor. Kind of series: JHU094 pancreatic patient tumor growth in vivo. Particulars: nanoparticle 1.2 mg vs free 0.3125 mg in 100 μl, IV. Also on record: species or system mice.
Excerpt: as §1

This is an account of results in patent publication US11191732B2, “Glutaminase inhibitor discovery and nanoparticle-enhanced delivery for cancer therapy” (The Johns Hopkins University, priority 2014, dated 2021).

Sequence of GLS (O94925 73-669): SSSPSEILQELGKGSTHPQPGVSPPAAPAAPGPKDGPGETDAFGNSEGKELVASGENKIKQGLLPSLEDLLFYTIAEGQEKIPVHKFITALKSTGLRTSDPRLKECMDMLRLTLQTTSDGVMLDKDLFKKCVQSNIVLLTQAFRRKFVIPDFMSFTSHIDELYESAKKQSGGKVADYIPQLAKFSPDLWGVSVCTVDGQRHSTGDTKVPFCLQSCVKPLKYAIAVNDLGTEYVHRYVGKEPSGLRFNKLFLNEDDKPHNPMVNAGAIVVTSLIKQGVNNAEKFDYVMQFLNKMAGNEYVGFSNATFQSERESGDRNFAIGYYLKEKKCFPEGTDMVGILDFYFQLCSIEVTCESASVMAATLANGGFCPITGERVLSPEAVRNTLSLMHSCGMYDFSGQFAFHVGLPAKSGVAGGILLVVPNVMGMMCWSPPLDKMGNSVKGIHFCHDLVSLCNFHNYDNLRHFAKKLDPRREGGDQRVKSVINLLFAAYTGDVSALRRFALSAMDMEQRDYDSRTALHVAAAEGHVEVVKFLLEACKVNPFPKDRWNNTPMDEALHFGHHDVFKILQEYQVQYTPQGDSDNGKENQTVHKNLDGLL

As usually defined, the IC50 is the concentration needed to halve the response being measured. On to `O=C(Cc1ccccc1)Nc1nnc(CCCCc2nnc(NC(=O)Cc3ccc(O)cc3)s2)s1` [Compound 5], for which the half-maximal inhibitory concentration (IC50) at GLS came out at 0.08 µM.

For `O=C(O)CCCCC(=O)Nc1nnc(CCCCc2nnc(NC(=O)Cc3ccccc3)s2)s1` [Compound 6], the IC50 at GLS turned out to be 0.1 µM.

With `Nc1nnc(CCSCCc2nnc(N)s2)s1` [Compound 2], at GLS, the 50% inhibitory concentration (IC50) is 100 µM. Moreover, the “metabolic stability” value in the series “Metabolic stability” is “metabolically unstable”.

As for `Nc1ccn([C@@H]2O[C@H](CO)[C@@H](O)C2(F)F)c(=O)n1` [gemcitabine], the “reduction in tumor growth” value in the series with Panc265 tumor is on record as 40-50%. Besides, the “survival rate at 10 years” value in series [1] (observation-alone arm 7.7%) is on record as 12.2%. For the same molecule, the “survival rate at 5 years” value in series [1] (observation-alone arm 10.4%) is reported as 20.7%. Moreover, in series [2], the “Median OS” value was 23.6 months.

As for `O=C(Cc1ccccc1)Nc1nnc(CCSCCc2nnc(NC(=O)Cc3ccccc3)s2)s1` [BPTES, bis-2-[5-(phenylacetamido)-1,3,4-thiadiazol-2-yl]ethyl sulfide], in series [3], the “effect on growth of glutamine-addicted pancreatic cancers” value is reported as “inhibitory to their growth”. Also, the “BPTES level in tumor” value in series [4] is reported as under 10 nM. In addition, the “effect on tumor growth” value in series [5] is “no statistical benefit”.

Take `Nc1nnc(CCCCc2nnc(NC(=O)Cc3ccccc3)s2)s1` [Compound 3]: the 50% inhibitory concentration (IC50) on GLS was found to be 1.9 µM.

For the molecule `O=C(O)CCCCCC(=O)Nc1nnc(CCCCc2nnc(NC(=O)Cc3ccccc3)s2)s1` [Compound 7], at GLS, the IC50 was 0.1 µM.

Consider `O=C(CCCCc1nnc(NC(=O)Cc2ccccc2)s1)NCCN1CCCC1` [Compound 4], for which the IC50 at GLS worked out at 4.6 µM.
